# Test results from PubChem BioAssay (NCI).
#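 In this assay, cells in 96-well plates receive the compound at five concentrations for 48 hours. Endpoints are linearly interpolated between the surrounding concentrations. GI50 marks 50% less growth. TGI is the concentration that stops growth completely.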
# Tests used:
# Experiment in all cases: inhibition of tumour cell growth, NCI panel, 48 h
# [1] = tested on: LOX IMVI melanoma
# [2] = tested on: PC-3 prostate
# [3] = tested on: U251 CNS
# [4] = tested on: HS 578T breast
# [5] = tested on: SK-MEL-28 melanoma
# [6] = tested on: EKVX NSCLC
# [7] = tested on: T-47D breast
# [8] = tested on: HT29 colon
# [9] = tested on: MOLT-4 leukemia
# [10] = tested on: UACC-257 melanoma
# [11] = tested on: OVCAR-3 ovarian
# [12] = tested on: NCI-H23 lung
# [13] = tested on: RPMI-8226 leukemia
# [14] = tested on: A549 NSCLC
# [15] = tested on: UO-31 renal
# [16] = tested on: M14 melanoma
# [17] = tested on: TK-10 renal
# [18] = tested on: ACHN renal
# [19] = tested on: OVCAR-4 ovarian
# [20] = tested on: OVCAR-5 ovarian
# [21] = tested on: 786-0 renal
# [22] = tested on: NCI-H460 lung
# [23] = tested on: HCT-15 colon
# [24] = tested on: SNB-75 CNS
# [25] = tested on: HCT-116 colon
# [26] = tested on: CCRF-CEM leukemia
# [27] = tested on: SK-MEL-5 melanoma
# [28] = tested on: SNB-19 CNS
# [29] = tested on: HOP-92 NSCLC
# [30] = tested on: SK-MEL-2 melanoma
# [31] = tested on: COLO 205 colon
# [32] = tested on: SR leukemia
# [33] = tested on: MDA-MB-231 breast
# [34] = tested on: MALME-3M melanoma
# [35] = tested on: OVCAR-8 ovarian
# [36] = tested on: K-562 leukemia
# [37] = tested on: KM12 colon
# [38] = tested on: RXF 393 renal
# [39] = tested on: HL-60(TB) leukemia
# [40] = tested on: NCI-H522 lung
# [41] = tested on: SF-539 CNS
# [42] = tested on: SN12C renal
# [43] = tested on: MDA-MB-435
# [44] = tested on: NCI/ADR-RES ovarian
# [45] = tested on: A498 renal
# [46] = tested on: SW-620 colon
# [47] = tested on: MCF7 breast
# [48] = tested on: IGROV1 ovarian
# [49] = tested on: SF-268 CNS
# [50] = tested on: BT-549 breast
# [51] = tested on: UACC-62 melanoma
# [52] = tested on: SK-OV-3 ovarian
# [53] = tested on: SF-295 CNS
# [54] = tested on: HOP-62 NSCLC
# [55] = tested on: HCC-2998 colon
smiles,measurement,setting,value
C[C@@H]1CCC/C=C/[C@H]2C[C@@H](O)C[C@@H]2[C@@H](O)/C=C/C(=O)O1,GI50,[1],67.7 nM
same,TGI,[1],155 nM
same,GI50,[2],125 nM
same,TGI,[2],> 33.3 µM
same,GI50,[3],137 nM
same,TGI,[3],> 33.3 µM
same,GI50,[4],21.1 nM
same,TGI,[4],> 33.3 µM
same,GI50,[5],40 nM
same,TGI,[5],12 µM
same,GI50,[6],108 nM
same,TGI,[6],> 33.3 µM
same,GI50,[7],109 nM
same,TGI,[7],1360 nM
same,GI50,[8],96.1 nM
same,TGI,[8],316 nM
same,GI50,[9],146 nM
same,TGI,[9],> 33.3 µM
same,GI50,[10],110 nM
same,TGI,[10],> 33.3 µM
same,GI50,[11],111 nM
same,TGI,[11],401 nM
same,GI50,[12],129 nM
same,TGI,[12],> 33.3 µM
same,GI50,[13],104 nM
same,TGI,[13],553 nM
same,GI50,[14],127 nM
same,TGI,[14],> 33.3 µM
same,GI50,[15],116 nM
same,TGI,[15],> 33.3 µM
same,GI50,[16],93.2 nM
same,TGI,[16],> 33.3 µM
same,GI50,[17],114 nM
same,TGI,[17],961 nM
same,GI50,[18],113 nM
same,TGI,[18],5.16 µM
same,GI50,[19],109 nM
same,TGI,[19],> 33.3 µM
same,GI50,[20],136 nM
same,TGI,[20],> 33.3 µM
same,GI50,[21],95.1 nM
same,TGI,[21],> 33.3 µM
same,GI50,[22],115 nM
same,TGI,[22],> 33.3 µM
same,GI50,[23],112 nM
same,TGI,[23],> 33.3 µM
same,GI50,[24],23 nM
same,TGI,[24],> 33.3 µM
same,GI50,[25],99.5 nM
same,TGI,[25],> 33.3 µM
same,GI50,[26],130 nM
same,TGI,[26],> 33.3 µM
same,GI50,[27],54.7 nM
same,TGI,[27],109 nM
same,GI50,[28],167 nM
same,TGI,[28],> 33.3 µM
same,GI50,[29],89.2 nM
same,TGI,[29],1280 nM
same,GI50,[30],92 nM
same,TGI,[30],236 nM
same,GI50,[31],63 nM
same,TGI,[31],131 nM
same,GI50,[32],111 nM
same,TGI,[32],> 33.3 µM
same,GI50,[33],69.7 nM
same,TGI,[33],171 nM
same,GI50,[34],86.8 nM
same,TGI,[34],1170 nM
same,GI50,[35],91.4 nM
same,TGI,[35],> 33.3 µM
same,GI50,[36],141 nM
same,TGI,[36],> 33.3 µM
same,GI50,[37],84.5 nM
same,TGI,[37],3.42 µM
same,GI50,[38],49.8 nM
same,TGI,[38],258 nM
same,GI50,[39],97.3 nM
same,TGI,[39],374 nM
same,GI50,[40],75.6 nM
same,TGI,[40],225 nM
same,GI50,[41],149 nM
same,TGI,[41],> 33.3 µM
same,GI50,[42],114 nM
same,TGI,[42],> 33.3 µM
same,GI50,[43],136 nM
same,TGI,[43],> 33.3 µM
same,GI50,[44],104 nM
same,TGI,[44],> 33.3 µM
same,GI50,[45],59.5 nM
same,TGI,[45],166 nM
same,GI50,[46],101 nM
same,TGI,[46],327 nM
same,GI50,[47],96.6 nM
same,TGI,[47],> 33.3 µM
same,GI50,[48],145 nM
same,TGI,[48],> 33.3 µM
same,GI50,[49],102 nM
same,TGI,[49],> 33.3 µM
same,GI50,[50],140 nM
same,TGI,[50],> 33.3 µM
same,GI50,[51],138 nM
same,TGI,[51],> 33.3 µM
same,GI50,[52],144 nM
same,TGI,[52],> 33.3 µM
same,GI50,[53],140 nM
same,TGI,[53],> 33.3 µM
same,GI50,[54],145 nM
same,TGI,[54],> 33.3 µM
same,GI50,[55],139 nM
same,TGI,[55],> 33.3 µM
